Laboratory results reported in publication PMC6836125, “Antiamoebic Activities of Indolocarbazole Metabolites Isolated from Streptomyces sanyensis Cultures” (Marine Drugs, 2019).
Read-outs that look alike come from different tables or passages of the source.

Key:
A. castellanii Neff [1] = experiment: Anti-Acanthamoeba activity on trophozoites, alamarBlue colorimetric assay; assay type: cell-based, Acanthamoeba castellanii Neff; conditions: for IC50: 96 h, read-out: IC50 A. castellanii Neff
Experimental: (§1) The amoeba strain used in this study was the type strain: Acanthamoeba castellanii Neff (ATCC 30010) which was axenically grown in PYG medium (0.75% (w/v) proteose peptone, 0.75% (w/v) yeast extract and 1.5% (w/v) glucose) containing 40 µg/mL of gentamicin (Biochrom AG, Cultek, Granollers, Barcelona, Spain). The murine macrophages J774A.1 (ATCC TIB-67) cell line was cultured in RPMI 1640 medium supplemented with 10% fetal bovine serum at 37 °C and 5% CO2 atmosphere, was used for the cytotoxicity assays. Successively, the evaluated molecules were also tested against two clinical isolates, Acanthamoeba griffini, genotype T3 obtained in a previous study, and Acanthamoeba polyphaga genotype T4 ATCC 30461, both axenically grown in the same medium as A. castellanii Neff.
(§2) To evaluate the biological activity of the fractions and molecules, the anti-Acanthamoeba experiments were carried out using the alamarBlue® colorimetric assay, as it was previously described. Briefly, Acanthamoeba strain was seeded in triplicate on 96-well microtiter plates (ThermoFisher™, Waltham, MA, USA) with 50 µL from a stock solution of 5 × 10^4 cells/mL and 50 µL of serial dilutions of the evaluated molecules in each well (1% DMSO was used to dissolve the highest dose of the compounds with no effects on the parasites). Two reference treatments such as chlorhexidine (chlorhexidine digluconate; Alfa Aesar) and voriconazole (Sigma), were used as positive controls. Finally, the alamarBlue® Reagent (Life Technologies, Madrid, Spain) was placed into each well at an amount equal to 10% of the final volume. Plates were incubated for 96 h at 26 °C with a slight agitation until their measurement in the EnSpire® Multimode Plate Reader (Perkin Elmer, Madrid, Spain) using fluorescence, at 570/585 nm.
(§3) The percentage of the growth inhibition, 50% inhibitory concentration (IC50 or CC50), was calculated by nonlinear regression analysis with 95% confidence limits using Sigma Plot 12.0 statistical analysis software (Systat Software). All experiments were performed three times, and the mean values were also calculated. A paired two-tailed t-test was used for analysis of the data. Values of p < 0.05 were considered significant.

A. castellanii Neff [2] = experiment: Measurement of ATP levels (CellTiter-Glo); assay type: cell-based, Acanthamoeba castellanii Neff; conditions: IC90, 24 h
Experimental: An appropriate level of ATP is necessary to maintain the cell metabolism. The effect of the drug on the ATP production was evaluated by incubating (10^5) of cells/mL with the previously calculated IC90 of 7OSTS (2) using the CellTiter-Glo Luminescent Cell Viability Assay. The luminescence of each assay was measured on the EnSpire®.

A. castellanii Neff [3] = experiment: Double-stain assay (Hoechst 33342/PI) for programmed cell death determination; assay type: cell-based, Acanthamoeba castellanii Neff; conditions: IC90 concentration, 24 h
Experimental: 10^5 amoebas/well were incubated in a 24-well plate with the previously calculated IC90 of 7OSTS for 24 h. A double-stain apoptosis detection kit (Hoechst 33342/PI) (ThermoFisher™, Waltham, MA, USA) was used to carry out the experiment following the manufacturer’s recommendations. The images were obtained using the EVOS FL Cell Imaging System AMF4300, Life Technologies, USA. The double-staining pattern allows the identification of live cells with low level of fluorescence, cells undergoing PCD with a higher level of blue fluorescence (as chromatin condenses), and dead cells which will show low-blue and high-red fluorescence (as the propidium iodide stain enters the nucleus of dead cells).

A. griffini = experiment: Anti-Acanthamoeba activity on trophozoites, alamarBlue colorimetric assay; assay type: cell-based; conditions: 96 h, read-out: IC50 A. griffini
Experimental: as §1, §2, §3

A. polyphaga = experiment: as above; assay type: cell-based; conditions: 96 h, read-out: IC50 A. polyphaga
Experimental: as §1, §2, §3

A. castellanii Neff [4] = experiment: Analysis of mitochondrial membrane potential (JC-1); assay type: cell-based, Acanthamoeba castellanii Neff; conditions: IC90, 24 h
Experimental: The use of JC-1 mitochondrial membrane potential detection kit (Cayman Chemical) it is possible to detect the collapse of an electrochemical gradient across the mitochondrial membrane during apoptosis process. 10^5 amoebas/mL were treated with IC90 of 7OSTS (2) for 24 h, the cells were centrifuged (1000 rpm × 10 min) and suspended in JC-1 buffer. Images were taken on the EVOS FL inverted microscope. The staining pattern allows the identification of two groups in a cellular population: live cells will show only red fluorescence, but cells with low mitochondrial potential (undergoing PCD) will show a higher level of green fluorescence.

[5] = Cytotoxicity test, alamarBlue assay; assay type: cell-based, murine; conditions: mouse, 37 °C, mean ± SD
Experimental: as §1
The cytotoxicity effect of active molecules was evaluated in murine macrophage J774A.1 cell line (ATCC # TIB-67) following the same protocol described above for Acanthamoeba trophozoites. Then, plates containing alamarBlue® were incubated for 24 h at 37 °C in presence of CO2 at 5%.
as §3

A. castellanii Neff [6] = experiment: Plasma membrane permeability (SYTOX Green); assay type: cell-based, Acanthamoeba castellanii Neff; conditions: IC90, 24 h
Experimental: In order to detect alterations of the membrane permeability in treated cells, the SYTOX Green (ThermoFischer^TM) assay was performed. Briefly, 10^5 trophozoite were washed and incubated in saline solution with SYTOX Green at a final concentration of 1 μM for 15 min in darkness. After that, IC90 of 7OSTS (2) was added to the cells and incubated for 24 h. Cells were observed and pictures were taken on the EVOS FL inverted microscope.

[7] = tested on: A. castellanii Neff cysts; experiment: In vitro activity against cysts (cysticidal assay, alamarBlue); assay type: cell-based, Acanthamoeba castellanii Neff; conditions: mature cysts
Experimental: On the other side, cysticidal activity of 7OSTS (2) was determined also using the alamarBlue™ reagent and confirmed visually by inverted microscopy. Cysts of A. castellaniii Neff were prepared as previously described. First of all, trophozoites were transferred from PYG medium based cultures (trophozoite medium) to Neff’s encystment medium (NEM; 0.1 M KCl, 8 mM MgSO4·7H2O, 0.4 mM CaCl2·2H2O, 1 mM NaHCO3, 20 mM ammediol [2-amino-2-methyl-1,3-propanediol; Sigma Aldrich Chemistry Ltd., Madrid, Spain], pH 8.8, at 25 °C) and were cultured in this medium with gently shaking for a week in order to obtain mature cysts. In order to carry out the cysticidal assay, mature cysts were harvested and washed twice with PYG medium. Serial dilutions of 7OSTS (2) were made in PYG and place onto sterile 96-well microtiter plates. 5·10^4 mature cysts of Acanthamoeba/mL were added to the wells with 50 µL of 7OSTS (2) dilutions. After 7 days of incubation, the plate was centrifuged at 3000 rpm for 10 min. The supernatant was removed and replaced with 100 µL of fresh PYG medium in each well. Finally, 10 μL of the alamarBlue® Reagent was placed into each well. The plates were then incubated for 144 h at 28 °C and the emitted fluorescence was measured with the EnSpire® Multimode Plate Reader (Perkin Elmer, Madrid, Spain) using fluorescence, at 570/585 nm. […]

[8] = target: calcium/calmodulin-dependent protein kinase II (CaMKII); design: method as in PMID 19132059, PMID 14552791; conditions: cited from earlier work
[9] = target: cyclin-dependent kinase 4 (CDK4); design: method as in PMID 19132059, PMID 14552791; conditions: cited from earlier work
protein kinase C (PKC) = conditions: cited from earlier work
protein kinase A (PKA) = conditions: cited from earlier work
[10] = tested on: human lung, colon, and nasopharyngeal carcinoma cell lines; design: method as in PMID 3112080; conditions: read-out: IC50 cytotoxic activity; cited from earlier work
[11] = read-out: Macrophage J774A.1 CC50

| Compound | IC50 (A. castellanii Neff [1]; trophozoites, 26 °C, mean ± SD) [µM] | IC50 (A. griffini; trophozoites, 26 °C, mean ± SD) [µM] | IC50 (A. polyphaga; trophozoites, 26 °C, mean ± SD) [µM] | CC50 at 24 h ([5]; J774A.1 macrophage cells) [µM] | also measured |
| --- | --- | --- | --- | --- | --- |
| CNC1CC2OC(C)(C1OC)n1c3ccccc3c3c4c(c5c6ccccc6n2c5c31)C(=O)NC4=O (centres unmarked) [7OSTS (2), 7-oxostaurosporine] |  |  |  |  | IC50 (A. castellanii Neff [1]): 0.83 ± 0.09 µM; IC90 (A. castellanii Neff [1]; read-out: IC90 concentration): 2.91 ± 0.67 µM; ATP level compared to the negative control (A. castellanii Neff [2]): 45%; Chromatin condensation (A. castellanii Neff [3]): induces chromatin condensation; IC50 (A. griffini): 0.96 ± 0.19 µM; IC50 (A. polyphaga): 5.51 ± 0.09 µM; Mitochondrial membrane potential (A. castellanii Neff [4]): decrease of the mitochondrial membrane potential; CC50 at 24 h [5, 11]: 5.2 ± 1.75 µM; Plasma membrane permeability (A. castellanii Neff [6]): plasmatic membrane damage; IC50 ([7]; Acanthamoeba castellanii): 0.92 ± 0.33 µM; Cyst viability ([7]; incubation up to 144 h): non-viable cysts were observed |
| CN[C@@H]1C[C@H]2O[C@@](C)([C@@H]1OC)n1c3ccccc3c3c4c(c5c6ccccc6n2c5c31)C(=O)NC4 [STS (1), staurosporine] |  |  |  |  | CC50 at 24 h [5, 11]: 8.74 ± 0.72 µM |
| O=C1NC(=O)c2c1c1c3ccccc3[nH]c1c1[nH]c3ccccc3c21 [Arcyriaflavin A (7), arcyriaflavin A] | 7.32 ± 0.45 | 7.53 ± 1.11 | 7.59 ± 0.73 |  | IC50 [8]: 0.025 µM; IC50 [9]: 0.14 µM; IC50 (protein kinase C (PKC)): > 100 µM; IC50 (protein kinase A (PKA)): > 2 µM |
| O=C1NCc2c1c1c3ccccc3[nH]c1c1[nH]c3ccccc3c21 [K252c (6), K252c] | 6.17 ± 0.73 | 2.25 ± 0.32 | 5.59 ± 0.34 |  | IC50 (protein kinase A (PKA)): 25.7 µM |

More lines, main results first:

| IC50 (A. castellanii Neff [1]; trophozoites, 26 °C, mean ± SD) [µM] | IC50 (A. griffini; trophozoites, 26 °C, mean ± SD) [µM] | IC50 (A. polyphaga; trophozoites, 26 °C, mean ± SD) [µM] | Compound | CC50 at 24 h ([5]; J774A.1 macrophage cells) [µM] | also measured |
| --- | --- | --- | --- | --- | --- |
| 7.53 ± 0.73 | 23.9 ± 0.55 | > 40 | COC1C(=O)CC2OC1(C)n1c3ccccc3c3c4c(c5c6ccccc6n2c5c31)C(=O)NC4 (centres unmarked) [4’D4’OSTS (3), 4′-demethylamino-4′-oxostaurosporine] | > 40 |  |
| 0.94 ± 0.29 | 0.1 ± 0.02 | 10.1 ± 2.21 | C[C@@H](c1ncncc1F)[C@](O)(Cn1cncn1)c1ccc(F)cc1F [Voriconazole, voriconazole] | 7.56 ± 0.77 |  |
|  |  | 4.76 ± 0.08 | [H]/N=C(\N/C(=N/[H])NCCCCCCNC(=N)NC(=N)Nc1ccc(Cl)cc1)Nc1ccc(Cl)cc1 [Chlorhexidine, chlorhexidine] | 7.4 ± 0.39 |  |
| 6.83 ± 2.6 | 14.5 ± 0.38 | > 40 | COC1=C(C)O[C@@H]2C[C@@]1(OC)n1c3ccccc3c3c4c(c5c6ccccc6n2c5c31)C(=O)NC4 [ICZ B (4), streptocarbazole B] | > 40 |  |
| 5.37 ± 0.23 | 5.02 ± 0.18 | 7.47 ± 0.61 | CO[C@H]1[C@H](O)[C@@H](O)[C@H](n2c3c(Cl)cccc3c3c4c(c5c6cccc(Cl)c6[nH]c5c32)C(=O)NC4=O)O[C@@H]1CO [Rebeccamycin (5), rebeccamycin] |  | IC50 [10]: 0.4 to 98 µM |
